Results on 10 compounds are retold here after article PMC9578396, “Intrinsic Antibacterial Activity of Xeruborbactam In Vitro: Assessing Spectrum and Mode of Action” (Antimicrobial Agents and Chemotherapy, 2022).

Where “and” joins values, the source holds several entries; their conditions need not be identical. Identical values can stand only once. Like-named read-outs stand apart in the source and are kept apart here.

Holding throughout (format): cell-based
One test concerns Klebsiella pneumoniae. The test is described as follows: microbe, parasite or virus in culture. Conditions: for MIC90: read-out: MIC90. The source says:
(§1) (i) Panels of engineered bacterial strains containing various combinations of porin and efflux mutations were used. The construction of all the strains used in the study is described in detail in references, [44], and [45]. (ii) KPC-producing clinical isolates and their derivatives that lost KPC plasmids were used also. These strains and their origins are described in the Table S2. (iii) Finally, KPC-producing clinical isolates enriched in strains with porin mutations were used. The mutations identified include various deletions, insertions, nonsense mutations, and decreased expression. Most of the isolates were obtained from JMI Laboratories or International Health Management Associates (IHMA); they were collected in the course of global surveillance studies.
(§2) Bacterial isolates were subjected to broth microdilution susceptibility testing, performed according to Clinical and Laboratory Standards Institute (CLSI) methods ([46]), using panels prepared in-house. […] Xeruborbactam was synthesized at Qpex Biopharma, San Diego, CA. Avibactam was purchased from eNovation Chemicals LLC, Bridgewater, NJ, USA; zidebactam was from MedKoo Biosciences, Inc., Morrisville, NC, and nacubactam was from Advanced ChemBlocks, Hayward, CA. Durlobactam was synthesized at Acme Bioscience, Palo Alto, CA, USA.

For the next test, the system named is Acinetobacter baumannii. Nature of the test: Broth microdilution MIC (CLSI), Acinetobacter baumannii. The settings on record: Acinetobacter baumannii.
From the text: as §1, §2
For orientation: Dilution methods test growth across graded concentrations, often in twofold steps.

A further test concerns Pseudomonas aeruginosa. Nature of the test: Broth microdilution MIC (CLSI), Pseudomonas aeruginosa.
From the text: as §1, §2

A further test concerns Escherichia coli. Nature of the test: Broth microdilution MIC (CLSI), Escherichia coli. The settings on record: Escherichia coli.
From the text: as §1, §2

[1] abbreviates: PAM1154 (oprM::Hg), xeruborbactam 0 µg/ml.
Where [2] appears, read: AB1007 (no beta-lactamase), xeruborbactam 0 µg/ml, read-out: MIC.
[3] abbreviates: AB1007, xeruborbactam 2 µg/ml, read-out: MIC.
Setting [4] is: AB1007, xeruborbactam 4 µg/ml, read-out: MIC.
Where [5] appears, read: AB1007, xeruborbactam 8 µg/ml, read-out: MIC.
Where [6] appears, read: Klebsiella pneumoniae, KPC-producing clinical strains with functional OmpK36, alone.
[7] abbreviates: Klebsiella pneumoniae, KPC-producing clinical strains with nonfunctional OmpK36, alone.
Where [8] appears, read: Klebsiella pneumoniae, KPC-producing clinical strains, all strains (n = 141), alone.

In the case of `NC(=O)[C@@H]1CC[C@@H]2CN1C(=O)N2OS(=O)(=O)O` [Avibactam], the MIC in the test with Klebsiella pneumoniae (Klebsiella pneumoniae, KPM1026a, parent, read-out: MIC) was 16 µg/mL; in the test with Klebsiella pneumoniae (Klebsiella pneumoniae, KPM3532, TolQ::M189K), > 64 µg/mL; in the test with Klebsiella pneumoniae (Klebsiella pneumoniae, KPM3534, TolQ::S31F), > 64 µg/mL; with Klebsiella pneumoniae (Klebsiella pneumoniae, KPM4235, TolQ::IP(183–1844)PR), > 64 µg/mL; in the test with Klebsiella pneumoniae (Klebsiella pneumoniae, KPM4236, TolQ::TAA at aa 103), > 64 µg/mL; with Klebsiella pneumoniae (Klebsiella pneumoniae, KPM4238, TolQ::S25F) it was > 64 µg/mL. Further, the MIC was > 64 µg/mL in the test with Klebsiella pneumoniae (Klebsiella pneumoniae, KPM4239, TolQ::S28F); > 64 µg/mL in the test on Klebsiella pneumoniae (Klebsiella pneumoniae, KPM4240, TolQ::S25Y); 16 µg/mL with Klebsiella pneumoniae (Klebsiella pneumoniae, strain KPM1026a, wild type, read-out: MIC); 16 µg/mL in the test with Klebsiella pneumoniae (Klebsiella pneumoniae, strain KPM1027, ramR, read-out: MIC); > 256 µg/mL with Klebsiella pneumoniae (Klebsiella pneumoniae, strain KPM1171, ramR ompK36_1171, read-out: MIC); 256 µg/mL with Klebsiella pneumoniae (Klebsiella pneumoniae, strain KPM2040, ompK36_2040, read-out: MIC). Besides, the MIC with Klebsiella pneumoniae (Klebsiella pneumoniae, strain KPM2600, ΔompK35) was 16 µg/mL; in the test on Klebsiella pneumoniae (Klebsiella pneumoniae, strain KPM2613, ΔompK35 ompK36_2040), 256 µg/mL; in the test with Klebsiella pneumoniae (Klebsiella pneumoniae, strain KPM2696, ΔacrB), 16 µg/mL; in the test with Acinetobacter baumannii (strain AB1007, wild type, read-out: MIC), > 256 µg/mL; with Acinetobacter baumannii (strain ACM1013, ΔadeIJK) it was > 256 µg/mL; in the test with Acinetobacter baumannii (strain ACM1014, ΔadeABC), > 256 µg/mL. For the same compound, the MIC in the test on Acinetobacter baumannii (strain ACM1015, ΔadeIJK ΔadeABC) is > 256 µg/mL; in the test on Acinetobacter baumannii (strain ACM1027, adeN (AdeIJK overexpression)) it was > 256 µg/mL; in the test on Acinetobacter baumannii (strain ACM1030, adeS (AdeABC overexpression)), > 256 µg/mL; with Pseudomonas aeruginosa (Pseudomonas aeruginosa, after inactivation of MexAB-OprM, read-out: MIC), 128 µg/mL; in the test on Pseudomonas aeruginosa (Pseudomonas aeruginosa, before inactivation of MexAB-OprM (wild type), read-out: MIC), > 256 µg/mL; in the test with Pseudomonas aeruginosa (Pseudomonas aeruginosa, strain PAM1020, wild type, read-out: MIC), > 256 µg/mL. In addition, the MIC in the test on Pseudomonas aeruginosa (Pseudomonas aeruginosa, strain PAM1032, nalB (MexAB-OprM overexpression)) was > 256 µg/mL; with Pseudomonas aeruginosa (Pseudomonas aeruginosa, strain PAM1033, nfxB (MexCD-OprJ overexpression)), 32 µg/mL; in the test with Pseudomonas aeruginosa (Pseudomonas aeruginosa, strain PAM1034, nfxC (MexEF-OprN overexpression)), > 256 µg/mL; in the test with Pseudomonas aeruginosa (Pseudomonas aeruginosa, strain PAM1106, mexA::Tet) it was 128 µg/mL; in the test on Pseudomonas aeruginosa (Pseudomonas aeruginosa, strain PAM1154, oprM::Hg), 128 µg/mL; with Escherichia coli (strain ECM5497, wild type, read-out: MIC), 16 µg/mL. The MIC with Escherichia coli (strain ECM6001, ΔacrB) worked out at 16 µg/mL; in the test on Escherichia coli (strain ECM6502, marR (AcrAB overexpression)), 8 µg/mL.
Consider `CC(C)(O/N=C(\C(=O)N[C@@H]1C(=O)N2C(C(=O)[O-])=C(C[n+]3ccccc3)CS[C@H]12)c1csc(N)n1)C(=O)O` [Ceftazidime], for which the MIC in the test with Klebsiella pneumoniae (Klebsiella pneumoniae, BAA2814) was 512 µg/mL; with Pseudomonas aeruginosa (setting [1]) it was 1 µg/mL; in the test on Pseudomonas aeruginosa (PAM1154, xeruborbactam 2 µg/ml), 0.25 µg/mL; in the test with Pseudomonas aeruginosa (PAM1154, xeruborbactam 4 µg/ml), 0.25 µg/mL; in the test on Pseudomonas aeruginosa (PAM1154, xeruborbactam 8 µg/ml) it was 0.25 µg/mL.
For `Nc1nc(/C(=C/CC(=O)O)C(=O)N[C@@H]2C(=O)N3C(C(=O)O)=CCS[C@H]23)cs1` [Ceftibuten], the “fold decrease compared to MIC of antibiotic alone” value with Klebsiella pneumoniae was 0.015 (4) fold and 0.008 (8) fold; in the test with Klebsiella pneumoniae (KPM3532 (TolQ::M189K), with xeruborbactam at 4 μg/mL), 2 fold; in the test on Klebsiella pneumoniae (KPM3532 (TolQ::M189K), with xeruborbactam at 8 μg/mL), 2 fold; in the test with Klebsiella pneumoniae (KPM3534 (TolQ::S31F), with xeruborbactam at 4 μg/mL), 2 fold; with Klebsiella pneumoniae (KPM3534 (TolQ::S31F), with xeruborbactam at 8 μg/mL), 4 fold. Also, the MIC in the test on Klebsiella pneumoniae (Klebsiella pneumoniae) amounted to 0.06 µg/mL; with Klebsiella pneumoniae (Klebsiella pneumoniae, KPM3532 (TolQ::M189K), alone), 0.125 µg/mL; in the test with Klebsiella pneumoniae (Klebsiella pneumoniae, KPM3534 (TolQ::S31F), alone), 0.125 µg/mL.
Regarding `C[C@@H](O)[C@H]1C(=O)N2C(C(=O)O)=C(SCCN=CN)C[C@H]12` [Imipenem], the MIC in the test on Acinetobacter baumannii (setting [2]) was determined as 0.125 µg/mL; in the test on Acinetobacter baumannii (setting [3]), 0.125 µg/mL; with Acinetobacter baumannii (setting [4]), 0.03 µg/mL; in the test with Acinetobacter baumannii (setting [5]), 0.015 µg/mL; in the test with Pseudomonas aeruginosa (setting [1]), 1 µg/mL; in the test with Pseudomonas aeruginosa (PAM1154, xeruborbactam 2 µg/ml), 0.5 µg/mL. For the same compound, the MIC in the test with Pseudomonas aeruginosa (PAM1154, xeruborbactam 4 µg/ml) came to 0.25 µg/mL; in the test on Pseudomonas aeruginosa (PAM1154, xeruborbactam 8 µg/ml), 0.125 µg/mL.
On to `CCN1CCN(C(=O)N[C@@H](C(=O)N[C@@H]2C(=O)N3[C@@H]2SC(C)(C)[C@@H]3C(=O)O)c2ccccc2)C(=O)C1=O` [Piperacillin], for which the MIC stood at 0.5 µg/mL with Pseudomonas aeruginosa (setting [1]); 0.125 µg/mL with Pseudomonas aeruginosa (PAM1154, xeruborbactam 2 µg/ml); 0.125 µg/mL in the test on Pseudomonas aeruginosa (PAM1154, xeruborbactam 4 µg/ml); 0.06 µg/mL in the test on Pseudomonas aeruginosa (PAM1154, xeruborbactam 8 µg/ml).
For the compound `CC1(C)[C@H](C(=O)O)N2C(=O)C[C@H]2S1(=O)=O` [Sulbactam], the MIC in the test on Acinetobacter baumannii (setting [2]) is 2 µg/mL; in the test with Acinetobacter baumannii (setting [3]), 2 µg/mL; with Acinetobacter baumannii (setting [4]), 2 µg/mL; in the test on Acinetobacter baumannii (setting [5]) it was 0.25 µg/mL.
Consider `C[C@@H](O)[C@H]1C(=O)N2C(C(=O)O)=C(SC3CN(C4=NCCS4)C3)[C@H](C)[C@H]12` [Tebipenem], for which the MIC was determined as 0.03 µg/mL in the test on Klebsiella pneumoniae (KPM1026a (no beta-lactamase), xeruborbactam 0 µg/ml); 0.03 µg/mL in the test on Klebsiella pneumoniae (KPM1026a, xeruborbactam 2 µg/ml); 0.016 µg/mL in the test with Klebsiella pneumoniae (KPM1026a, xeruborbactam 4 µg/ml); 0.004 µg/mL with Klebsiella pneumoniae (KPM1026a, xeruborbactam 8 µg/ml).
As for `O=C(O)C[C@@H]1CC[C@H](NC(=O)Cc2cccs2)B(O)O1` [Vaborbactam], the “effect on beta-lactam MIC” value in the test on Klebsiella pneumoniae (KPM1026a, vaborbactam up to 64 μg/mL, data not shown) was “no reduction”. The MIC50 in the test with Klebsiella pneumoniae (setting [6]), in the test with Klebsiella pneumoniae (setting [7]) and in the test on Klebsiella pneumoniae (setting [8]) was > 64 µg/mL each time. Moreover, the MIC90 with Klebsiella pneumoniae (setting [6]), with Klebsiella pneumoniae (setting [7]) and in the test on Klebsiella pneumoniae (setting [8]) was > 64 µg/mL each time. Also, the MIC was > 128 µg/mL in the test with Klebsiella pneumoniae (Klebsiella pneumoniae, KPM1271 (KPC-3; wild type), alone, read-out: MIC); > 128 µg/mL in the test with Klebsiella pneumoniae (Klebsiella pneumoniae, KPM1272 (KPC-3; ramR_fs), alone, read-out: MIC); > 128 µg/mL with Klebsiella pneumoniae (Klebsiella pneumoniae, KPM1273 (KPC-3; ramR_fs ompK36_1171), alone, read-out: MIC); > 128 µg/mL with Klebsiella pneumoniae (Klebsiella pneumoniae, KPM2067 (KPC-3; ompK36_fs), alone, read-out: MIC); > 128 µg/mL with Klebsiella pneumoniae (Klebsiella pneumoniae, KPM2601 (KPC-3; ΔompK35), alone); > 128 µg/mL in the test with Klebsiella pneumoniae (Klebsiella pneumoniae, KPM2631 (KPC-3; ompK36_fs ΔompK35), alone).
As for `Cn1c(N)c(NC(=O)NCCN)c[n+]1CC1=C(C(=O)O)N2C(=O)[C@@H](NC(=O)/C(=N\OC(C)(C)C(=O)[O-])c3nsc(N)n3)[C@H]2SC1` [ceftolozane], the MIC worked out at 0.5 µg/mL in the test with Pseudomonas aeruginosa (setting [1]); 0.25 µg/mL in the test with Pseudomonas aeruginosa (PAM1154, xeruborbactam 2 µg/ml); 0.25 µg/mL with Pseudomonas aeruginosa (PAM1154, xeruborbactam 4 µg/ml); 0.125 µg/mL with Pseudomonas aeruginosa (PAM1154, xeruborbactam 8 µg/ml).
On to `CC1=C(C(=O)O)N2C(=O)[C@@H](NC(=O)[C@H](N)c3ccccc3)[C@H]2SC1` [cephalexin], for which the MIC in the test on Klebsiella pneumoniae (Klebsiella pneumoniae) turned out to be 128 µg/mL.
